These results are taken from article PMC4222603, “Dual inhibition of HIV-1 replication by integrase-LEDGF allosteric inhibitors is predominant at the post-integration stage” (Retrovirology, 2013).

The target of assay [1] is T1, IN strand transfer activity (full-length HIV-1 IN) (Human immunodeficiency virus type 1 group M subtype B, UniProt P12497).
T1 construct: were carried out at 37°C with the full-length HIV-1 IN
The assay can be described thus: IN strand transfer radioactive assay. The format is biochemical. From the text:
(§1) Sequences of the different oligonucleotides (ODN) substrates are U5B: 5′-[…]-3′, U5A: 5′- […]-3′ and U5B-2: 5′-[…]-3′. ODNs were purchased from Eurogentec and further purified by electrophoresis in a denaturing 16% acrylamide/urea gel. For activity assays, ODNs (U5B and U5B-2) were radiolabelled with T4 polynucleotide kinase (New England Biolabs) and γ[^32-P]ATP (3000 Ci/mmol) (Amersham), and purified on a Sephadex G-10 column (GE Healthcare). Double-stranded ODNs (U5B with U5A and U5B-2 with U5A used for 3′-processing and strand transfer reactions, respectively) were obtained by mixing equimolar amounts of complementary strands in the presence of 100 mM NaCl.
(§2) IN activity assays – 3′-processing, strand transfer – were carried out at 37°C with the full-length HIV-1 IN, in a buffer containing 10 mM HEPES (pH 7.2), 1 mM DTT, 7.5 mM MgCl2 in the presence of 6.25 nM DNA (3′-processing) or 12.5 nM DNA (strand transfer) as described previously. For negative control, 100 mM Na2EDTA was added to the reaction before incubation. Products were separated by electrophoresis in denaturing 16% acrylamide/urea gels. Gels were analysed with a Molecular Dynamics STORM phosphoimager and quantified with ImageQuant™ 4.1 software.

In assay [2] the target is T2, IN 3′ processing activity (Human immunodeficiency virus type 1 group M subtype B, UniProt P12497).
T2 construct: were carried out at 37°C with the full-length HIV-1 IN
In words: IN 3′ processing radioactive assay. The format is biochemical, HIV-1. Particulars: at 100 nM.
Text: as §1, §2

For assay [3], the system named is HIV-1 LAV virions produced by HeLa-LAV cells. In words: Virions produced by compound-treated HeLa-LAV cells: p24 and infectivity. The format is cell-based. The following applies: luciferase assay in TZM cells.
Assay [4] has as its system NL4-3 IN T174I mutant virus. The format is cell-based, HIV-1.
In assay [5] the test system is VSV-G-pseudotyped NL4-3Δenv-luc. The assay can be described thus: microbe, parasite or virus in culture. The format is cell-based, HIV-1.
Another assay relates to HIV-1 NL4-3 wt. The class given is cell-based.
The next assay deals with HIV-1 NL4-3. In words: Antiviral assay in MT-4 cells, multiple-round infection, CellTiter-Glo. The class given is cell-based. Particulars: Human immunodeficiency virus 1, NL43; MT4 cells; mean of six independent experiments; read-out: NL4-3 EC50 Multiple-round. How it is done: MT-4 cells growing exponentially at the density of 10^6/mL were infected with HIV-1 strain NL4-3 at a MOI (multiplicity of infection) of 0.001 for 2 h. The cells were washed with PBS and aliquoted, using 100 μL fresh complete RPMI, into 96-well white plates (Corning) in the presence of different concentrations of compounds.
A general note: ATP-based viability assays read luminescence as a measure of living cells.

Assay [6] deals with His6-IN (HIV-1 NL4-3 integrase wild type, from pINSD.His) (HIV-1 NL4-3). In words: SEC; Superdex 200 10/300 GL, 0.4 mL/min, 50 mM HEPES pH 7.5, 1 M NaCl, 7 mM CHAPS, 5 mM MgCl2, 10 mM DTT, 10% glycerol, room temperature; His6-IN wt 21 uM or His6-IN A128T 40 uM; no compound. In general terms: SEC sorts molecules by how far they enter the pores of the column.
Assay [7] shares this target. In words: SEC; Superdex 200 10/300 GL, 0.4 mL/min, 50 mM HEPES pH 7.5, 1 M NaCl, 7 mM CHAPS, 5 mM MgCl2, 10 mM DTT, 10% glycerol, room temperature; His6-IN wt 21 uM or His6-IN A128T 40 uM incubated for 10 min with 100 uM BI-D or Mut101 before injection.
The target of assay [8] is His6-IN A128T (HIV-1 NL4-3 integrase mutant A128T) (HIV-1 NL4-3). The assay can be described thus: SEC; Superdex 200 10/300 GL, 0.4 mL/min, 50 mM HEPES pH 7.5, 1 M NaCl, 7 mM CHAPS, 5 mM MgCl2, 10 mM DTT, 10% glycerol, room temperature; His6-IN wt 21 uM or His6-IN A128T 40 uM; no compound.
For assay [9] the target is unchanged. In words: SEC; Superdex 200 10/300 GL, 0.4 mL/min, 50 mM HEPES pH 7.5, 1 M NaCl, 7 mM CHAPS, 5 mM MgCl2, 10 mM DTT, 10% glycerol, room temperature; His6-IN wt 21 uM or His6-IN A128T 40 uM incubated for 10 min with 100 uM BI-D or Mut101 before injection.

On to `C[C@@H]1CCO[C@H]2Cn3cc(C(=O)NCc4ccc(F)cc4F)c(=O)c(O)c3C(=O)N12` [DTG, Dolutegravir, reference compound], for which the 50% inhibitory concentration (IC50) in [1] is 2.7 nM. Besides, the inhibition at 0.1 µM in assay [2] came to 16%.

As for `CC(C)(C)NC(=O)[C@@H]1C[C@@H]2CCCC[C@@H]2CN1C[C@@H](O)[C@H](Cc1ccccc1)NC(=O)[C@H](CC(N)=O)NC(=O)c1ccc2ccccc2n1` [SQV, Saquinavir, reference compound], the “Infectivity of virions from treated HeLa-LAV cells” value in assay [3] was “strong virus infectivity defects”. In addition, the “Infectivity of NL4-3 IN T174I virus produced in presence of compound” value in assay [4] is “sensitive to and inactivated”. For the same compound, the “NL4-3 EC50 Single-round” value in assay [5] is “Inactive”. The “Infectivity of NL4-3 wt virus produced in presence of compound” value in the assay with HIV-1 NL4-3 wt is “sensitive to and inactivated”. Further, the EC50 with HIV-1 NL4-3 came out at 13 nM.

On to “His6-IN (HIV-1 NL4-3 integrase wild type, from pINSD.His) (enzyme)”, for which the stoichiometry N in assay [6] amounted to 2; in [7], 4.

For “His6-IN A128T (HIV-1 NL4-3 integrase mutant A128T) (enzyme)”, the stoichiometry N in [8] came to 2; in assay [9], 4.

By IC50 is commonly meant the concentration needed to halve the response being measured. Usually inhibition stands for the drop in the measured response relative to a control, in per cent. In general, EC50 refers to the concentration needed to bring the measured effect to its halfway point. A word on the stoichiometry N: it is a count of units in the complex or per binding partner.
